# Data as given in ChEMBL document CHEMBL5120794, “Development of 5-hydroxyl-1-azabenzanthrone derivatives as dual binding site and selective acetylcholinesterase inhibitors” (Eur J Med Chem, 2022).
# Calls of active or inactive are those of the source. The calls are words filed in the database; no cut-off is given here.
# Experiments:
# Mus musculus = assay: Antialzheimer activity in ICR mouse assessed as reduction in scopolamine-induced cognitive impairment at 2.5 to 10 mg/kg, ip administered for 14 consecutive days followed by scopolmaine-stimulation measured on day 21 by Morris water maze test; format: functional, organism-based; conditions: dose 2.5-10 mg/kg, time 21.0 day, DDE = dose-dependent effect
# PC-12 [1] = assay: Cytoprotective activity against H2O2-induced oxidative damage in rat PC-12 cells assessed as cell viability at 1 to 3 uM preincubated for 4 hrs followed by H2O2 treatment for another 24 hrs by MTT assay; format: functional, cell-based; conditions: dose 1-3 µM, time 28.0 hrs
# PC-12 [2] = assay: Inhibition of ROS production in rat PC-12 cells assessed as intracellular ROS level at 0.1 to 0.5 uM preincubated for 4 hrs followed by H2O2 treatment for another 24 hrs by flow cytometric analysis (RVB = 1.58); format: functional; conditions: dose 0.1-0.5 µM; time 28 hrs
# PC-12 [3] = assay: Induction of apoptosis in rat PC-12 cells assessed as viable cells at 0.1 uM preincubated for 4 hrs followed by H2O2 treatment for another 24 hrs by Annexin V and PI double staining based flow cytometric analysis (RVB = 87.1 %); format: functional; conditions: time 28 hrs, read-out: Activity
# PC-12 [4] = assay: Induction of apoptosis in rat PC-12 cells assessed as necrotic cells at 0.1 uM preincubated for 4 hrs followed by H2O2 treatment for another 24 hrs by Annexin V and PI double staining based flow cytometric analysis (RVB = 2.94 %); format: functional; conditions: time 28 hrs
# PC-12 [5] = assay: Induction of apoptosis in rat PC-12 cells assessed as viable cells at 0.3 uM preincubated for 4 hrs followed by H2O2 treatment for another 24 hrs by Annexin V and PI double staining based flow cytometric analysis (RVB = 87.1 %); format: functional; conditions: time 28 hrs, read-out: Activity
# PC-12 [6] = assay: Induction of apoptosis in rat PC-12 cells assessed as early apoptotic cells at 0.3 uM preincubated for 4 hrs followed by H2O2 treatment for another 24 hrs by Annexin V and PI double staining based flow cytometric analysis (RVB = 4.52 %); format: functional; conditions: time 28 hrs
# PC-12 [7] = assay: Induction of apoptosis in rat PC-12 cells assessed as necrotic cells at 0.3 uM preincubated for 4 hrs followed by H2O2 treatment for another 24 hrs by Annexin V and PI double staining based flow cytometric analysis (RVB = 2.94 %); format: functional; conditions: time 28 hrs
# PC-12 [8] = assay: Induction of apoptosis in rat PC-12 cells assessed as viable cells at 0.5 uM preincubated for 4 hrs followed by H2O2 treatment for another 24 hrs by Annexin V and PI double staining based flow cytometric analysis (RVB = 87.1 %); format: functional; conditions: time 28 hrs, read-out: Activity
# PC-12 [9] = assay: Induction of apoptosis in rat PC-12 cells assessed as early apoptotic cells at 0.5 uM preincubated for 4 hrs followed by H2O2 treatment for another 24 hrs by Annexin V and PI double staining based flow cytometric analysis (RVB = 4.52 %); format: functional; conditions: time 28 hrs
# PC-12 [10] = assay: Induction of apoptosis in rat PC-12 cells assessed as late apoptotic cells at 0.5 uM preincubated for 4 hrs followed by H2O2 treatment for another 24 hrs by Annexin V and PI double staining based flow cytometric analysis (RVB = 5.46 %); format: functional; conditions: time 28 hrs
# PC-12 [11] = assay: Induction of apoptosis in rat PC-12 cells assessed as necrotic cells at 0.5 uM preincubated for 4 hrs followed by H2O2 treatment for another 24 hrs by Annexin V and PI double staining based flow cytometric analysis (RVB = 2.94 %); format: functional; conditions: time 28 hrs
# PC-12 [12] = assay: Antioxidant activity in H2O2-induced oxidative stress in rat PC-12 cells assessed as increase in expression of Nrf2 level preincubated for 4 hrs followed by H2O2 treatment for another 24 hrs by Western blotting analysis; format: functional, cell-based; conditions: dose 0.5-3 µM, time 28.0 hrs, DDE = dose-dependent effect
# [13] = AUC (0 to 24 hrs) in Sprague-Dawley rat plasma at 10 mg/kg, IG measured at 10 to 1440 mins by LC-MS/MS analysis; format: ADME, organism-based; parameters: dose 10 mg/kg, time 10-1440 min, route ig; conditions: po
# [14] = AUC (0 to 24 hrs) in Sprague-Dawley rat plasma at 2 mg/kg, iv measured at 10 to 1440 mins by LC-MS/MS analysis; format: ADME, organism-based; parameters: time lower 10 min, dose 2 mg/kg, time upper 1440 min, route iv
# [15] = AUC (0 to infinity) in Sprague-Dawley rat plasma at 10 mg/kg, IG measured at 10 to 1440 mins by LC-MS/MS analysis; format: ADME, organism-based; parameters: time lower 10 min, dose 10 mg/kg, time upper 1440 min, route ig; conditions: po
# [16] = MRT infinity in Sprague-Dawley rat plasma at 10 mg/kg, IG measured at 10 to 1440 mins by LC-MS/MS analysis; format: ADME, organism-based; conditions: po, time 10-1440 min
# [17] = Tmax in Sprague-Dawley rat plasma at 10 mg/kg, IG measured at 10 to 1440 mins by LC-MS/MS analysis; format: ADME, organism-based; conditions: po, time 10-1440 min
# [18] = Tmax in Sprague-Dawley rat plasma at 2 mg/kg, iv measured at 10 to 1440 mins by LC-MS/MS analysis; format: ADME, organism-based; conditions: time 10-1440 min
# [19] = Cmax in Sprague-Dawley rat plasma at 10 mg/kg, IG measured at 10 to 1440 mins by LC-MS/MS analysis; format: ADME, organism-based; parameters: dose 10 mg/kg, time 10-1440 min, route ig; conditions: po
# [20] = Cmax in Sprague-Dawley rat plasma at 2 mg/kg, iv measured at 10 to 1440 mins by LC-MS/MS analysis; format: ADME, organism-based; parameters: time lower 10 min, dose 2 mg/kg, time upper 1440 min, route iv
# [21] = Clearance in Sprague-Dawley rat plasma at 10 mg/kg, IG measured at 10 to 1440 mins by LC-MS/MS analysis; format: ADME, organism-based; conditions: po, time 10-1440 min
# [22] = Clearance in Sprague-Dawley rat plasma at 2 mg/kg, iv measured at 10 to 1440 mins by LC-MS/MS analysis; format: ADME, organism-based; conditions: time 10-1440 min
# [23] = Bioavailability in Sprague-Dawley rat plasma at 10 mg/kg, IG measured at 10 to 1440 mins by LC-MS/MS analysis; format: ADME, organism-based; conditions: po, time 10-1440 min
# [24] = Toxicity in sopolamine-induced cognitive impairment ICR mouse model assessed as swimming motility impairment at 10 mg/kg, ip administered for 14 consecutive days followed by scopolmaine-stimulation measured on day 21; format: organism-based; conditions: in vivo, 504 h, time 21 day
# [25] = Toxicity in sopolamine-induced cognitive impairment ICR mouse model assessed as emesis at 10 mg/kg, ip administered for 14 consecutive days followed by scopolmaine-stimulation measured on day 21; format: organism-based; conditions: in vivo, 504 h, time 21 day
# [26] = Toxicity in sopolamine-induced cognitive impairment ICR mouse model assessed as diarrhea at 10 mg/kg, ip administered for 14 consecutive days followed by scopolmaine-stimulation measured on day 21; format: organism-based; conditions: in vivo, 504 h, time 21 day
# [27] = Toxicity in sopolamine-induced cognitive impairment ICR mouse model assessed as morphological change in spleen at 10 mg/kg, ip administered for 14 consecutive days followed by scopolmaine-stimulation measured on day 21 by H and E staining method; format: organism-based; conditions: in vivo, 504 h, time 21 day
# [28] = Toxicity in sopolamine-induced cognitive impairment ICR mouse model assessed as morphological change in lung at 10 mg/kg, ip administered for 14 consecutive days followed by scopolmaine-stimulation measured on day 21 by H and E staining method; format: organism-based; conditions: in vivo, 504 h, time 21 day
# [29] = Toxicity in sopolamine-induced cognitive impairment ICR mouse model assessed as morphological change in renal at 10 mg/kg, ip administered for 14 consecutive days followed by scopolmaine-stimulation measured on day 21 by H and E staining method; format: organism-based; conditions: in vivo, 504 h, time 21 day
# Cholinesterase = Cholinesterase (Equus caballus, UniProt P81908)
# Sequence of Cholinesterase (P81908 whole entry): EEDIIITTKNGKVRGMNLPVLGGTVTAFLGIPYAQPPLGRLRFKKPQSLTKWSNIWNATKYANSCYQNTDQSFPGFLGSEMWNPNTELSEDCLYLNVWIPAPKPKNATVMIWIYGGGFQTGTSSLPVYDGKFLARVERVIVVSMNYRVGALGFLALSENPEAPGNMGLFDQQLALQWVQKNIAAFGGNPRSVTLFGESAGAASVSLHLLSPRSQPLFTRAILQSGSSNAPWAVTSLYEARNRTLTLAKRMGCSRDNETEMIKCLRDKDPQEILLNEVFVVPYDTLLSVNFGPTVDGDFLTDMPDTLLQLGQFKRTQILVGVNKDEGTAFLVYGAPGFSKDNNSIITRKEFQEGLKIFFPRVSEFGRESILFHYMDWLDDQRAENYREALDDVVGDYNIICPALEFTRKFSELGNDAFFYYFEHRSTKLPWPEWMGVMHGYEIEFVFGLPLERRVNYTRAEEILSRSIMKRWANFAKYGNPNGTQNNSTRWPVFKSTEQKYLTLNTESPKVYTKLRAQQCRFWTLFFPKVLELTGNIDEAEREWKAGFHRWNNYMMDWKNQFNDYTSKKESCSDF
# Description: Inhibition of equine serum BchE using S-butyryl thiocholine iodide as substrate incubated for 10 mins followed by substrate addition measured at 0 to 180 secs by Ellman's method
# in vitro = conditions: PAMPA
structure (smiles),measurement,setting,value
CC1CCCCN1CCCOc1cc2c3c(nccc3c1)-c1ccccc1C2=O (configuration not stated),Activity,Mus musculus,Dde
same,Activity,PC-12 [1],Active
same,Activity,PC-12 [2],1.1
same,viability at 0.1 µM,PC-12 [3],79.7%
same,Activity,PC-12 [4],4.58%
same,viability at 0.3 µM,PC-12 [5],86.9%
same,Activity,PC-12 [6],3.99%
same,Activity,PC-12 [7],2.99%
same,viability at 0.5 µM,PC-12 [8],88.5%
same,Activity,PC-12 [9],3.71%
same,Activity,PC-12 [10],4.81%
same,Activity,PC-12 [11],2.96%
same,Activity,PC-12 [12],Dde
same,AUC(0-t),[13],704 ng·h/mL
same,AUC(0-t),[14],254 ng·h/mL
same,AUC(0-inf),[15],841 ng·h/mL
same,MRT inf,[16],6.48 h
same,Tmax,[17],3.33 h
same,Tmax,[18],4.98 min
same,Cmax,[19],68.5 ng/mL
same,Cmax,[20],103 ng/mL
same,CL/F,[21],208 mL/min/kg
same,clearance,[22],116 mL/min/kg
same,bioavailability,[23],55.5%
same,Activity,[24],Non-Toxic
same,Activity,[25],Non-Toxic
same,Activity,[26],Non-Toxic
same,Activity,[27],Non-Toxic
same,Activity,[28],Non-Toxic
same,Activity,[29],Non-Toxic
same,IC50,Cholinesterase,19.7 µM
same,Papp,in vitro,16.6 ×10⁻⁶ cm/s
